From patent US8829033B2, “N-benzylamide substituted derivatives of 2-(acylamido)acetic acid and 2-(acylamido)propionic acids: potent neurological agents” (The University of North Carolina at Chapel Hill, priority 2009, dated 2014)
Read-outs that look alike come from different tables or passages of the source.

Key:
[1] = Neurological toxicity, rotorod test, mice (ip); format: in vivo; details: male, CF No 1, mouse, in vivo, rotorod test
Experimental: (§1) Tests are conducted in groups of at least 8 mice or rats to determine the intrinsic neurotoxicity (neuromuscular impairment) after administration of the test compound by the route of administration to be used in the pharmacology studies. Neurotoxicity is determined in male CF No 1 mice by the rotarod procedure. Inability of the mouse to maintain its equilibrium in 3 trials during 1 min on this rotating rod (6 rpm) is used as an indication of such impairment. In Sprague-Dawley rats, minimal motor impairment (MMI) is determined by overt evidence of ataxia, abnormal gait, and stance.

[2] = system: Rat; assay: Behavioral toxicity, rat (po); format: in vivo; details: behavioral toxicity
Experimental: as §1

[3] = system: Rat; assay: Maximal electroshock seizure (MES) test, rat (po); format: in vivo; details: for ED50: read-out: Rat (po) MES, ED50
Experimental: (§2) The maximal electroconvulsive shock (MES) test is regarded as a standard screen for anticonvulsant activity in terms of inhibition of seizure spread in generalized tonic-clonic seizures.
(§3) Groups of at least 8 male albino CF No. 1 mice or male albino Sprague-Dawley rats are treated with 10 mL/kg i.p. or 4 mL/kg p.o. of the test compound solution, respectively. The electrical stimulus in the MES test is 50 mA at 60 Hz for mice and 150 mA at 60 Hz for rats, both delivered for 0.2 sec. Abolition of the hind leg tonic extensor component of the seizure is used as the endpoint.

[4] = system: Mice; assay: Formalin test (mice, ip); format: in vivo; details: mice, ip; dose 8.0 (mg)
Experimental: Compounds of the present invention were active in treating pain in a formalin test carried out in accordance with standard techniques, as described in S. Hunskaar et al., J. Neurosci. Methods 14: 69-76 (1985). Briefly, 0.5% formalin is injected into the mouse hind paw to elicit a bi-phasic licking response, where the first acute phase is thought to correspond to the direct stimulation of peripheral fibers and the second (inflammatory) phase is caused by the release of inflammatory mediators.
Spinal/supraspinal plasticity of nociception is considered as a molecular basis for neuropathic pain particularly during the second (late) phase of the test (Dubuisson & Dennis, 1977; Coderre et al., 1990; Coderre & Melzack, 1992), during which most clinically used drugs against neuropathic pain are active.

[5] = system: Mice; assay: Maximal electroshock seizure (MES) test, mice (ip);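 further: male albino CF No. 1 mice dosed ip, MES stimulus 50 mA at 60 Hz lasting 0.2 s, efficacy endpoint is loss of hind leg tonic extension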
Experimental: as §2, §3

[6] = system: Mice; assay: 6 Hz test, mice (ip); format: in vivo; details: Mus musculus, ip, intraperitoneally
[7] = system: Mice; assay: Neurological toxicity, rotorod test, mice (ip); format: in vivo; details: rotorod test
Experimental: as §1

Compound	melting point [°C]	TD50 ([1]; read-out: Mice (ip) Tox, Td50) [mg/kg]	Mice (ip) MES, ED50 ([5]; Table b501, intraperitoneally)	further results
CC(=O)N[C@H](C)C(=O)NCc1ccc(OCc2cccc(F)c2)cc1	158	–	–	–
COCCCc1ccc(CNC(=O)[C@@H](COC)NC(C)=O)cc1	105 to 107	–	–	–
COCc1ccc(CNC(=O)[C@@H](COC)NC(C)=O)cc1	119 to 120	–	–	–
CC(=O)N[C@@H](C(=O)NCc1ccc(OCc2cccc(F)c2)cc1)C(C)(C)C	64 to 66	–	–	–
CC(=O)NC(C(=O)NCc1ccc(OCc2cccc(F)c2)cc1)c1ccccn1 (racemic) [(R, S)-9, N-4-(3-Fluorobenzyloxy)benzyl 2-Acetamido-2-(pyridin-2-yl)acetamide]	154 to 155	–	–	TD50 ([1]; read-out: Mice (ip) Tox, TD50): 210 mg/kg; Rat (po) Tox, TD50 ([2]; Table b500, orally): >30 [4] mg/kg
COC[C@@H](NC(C)=O)C(=O)NCc1ccc(N=[N+]=[N-])cc1 [(R)-5, (R)—N-(4-Azidobenzyl)-2-acetamido-3-methoxypropanamide]	149 to 150	–	–	Rat (po) PI ([3]; PI=TD50/ED50): >64; Formalin Assay Acute (%) [4]: 59%; Formalin Assay Inflam. (%) [4]: 106%; Mice (ip) PI ([5]; ip, PI=TD50/ED50): 5.5
COC[C@@H](NC(C)=O)C(=O)NCc1ccc(CCc2cccc(F)c2)cc1 [(R)-13]	134 to 136	30 to 100	>10, <30 [0.5] mg/kg	Rat (po) Tox, TD50 ([2]; Table b501, orally): >30 [1] mg/kg
COC[C@@H](NC(C)=O)C(=O)NCc1ccc(/C=C/c2cccc(F)c2)cc1 [(R)-14, (2-R,E)-N-4-(3-Fluorostyryl)benzyl 2-Acetamido-3-methoxypropionamide]	206 to 208	100 to 300	>30, <100 [0.5] mg/kg	ED50 [6]: < 30 mg/kg
COC[C@@H](NC(C)=O)C(=O)NCc1ccc(C#Cc2cccc(F)c2)cc1 [(R)-15, (R)—N-4-((3-Fluorophenyl)ethynyl)benzyl 2-Acetamido-3-methoxypropionamide]	200 to 202	100 to 300	>30, <100 [1.0, 4.0] mg/kg	ED50 ([3]; orally): 1.4 mg/kg
COC[C@@H](NC(C)=O)C(=O)NCc1ccc(COc2cccc(F)c2)cc1 [(R)-16, (R)—N-4-((3-Fluorophenoxy)methyl)benzyl 2-Acetamido-3-methoxypropionamide]	–	–	5.9 [0.25] mg/kg	Rat (po) PI ([3]; Table b501, protective index (TD50/ED50)): >21; Mice (ip) Tox, Td50 [7]: 10 [0.25] mg/kg; Mice (ip) PI ([5]; Table b501, ip, protective index (TD50/ED50)): 1.8
COC[C@@H](NC(C)=O)C(=O)NCc1ccc(NCc2cccc(F)c2)cc1 [(R)-17, (R)—N-4-(3-Fluorobenzylamino)benzyl 2-Acetamido-3-methoxypropionamide]	78 to 81	30 to 100	>10, <30 [0.5] mg/kg	–
COC[C@@H](NC(C)=O)C(=O)NCc1ccc(COCc2cccc(F)c2)cc1 [(R)-18, (R)—N-4-(((3-Fluoro)benzyloxy)methyl)benzyl 2-Acetamido-3-methoxypropionamide]	–	–	>30, <100 [0.5] mg/kg	Mice (ip) Tox, Td50 [7]: >30, <100 [0.5] mg/kg
COC[C@@H](NC(C)=O)C(=O)NCc1ccc(OCCc2cccc(F)c2)cc1 [(R)-19, (R)—N-4′-((3″-Fluoro)phenethoxy)benzyl 2-N-Acetamido-3-methoxypropionamide]	147 to 148	30 to 100	>30, <100 [0.5, 4.0] mg/kg	–
COC[C@@H](NC(C)=O)C(=O)NCc1ccc(OCc2ccccc2)cc1 [(R)-20, (R)—N-4′-(Benzyloxy)benzyl 2-N-Acetamido-3-methoxypropionamide]	149	–	–	ED50 ([3]; Rattus norvegicus, Table b502, orally): 5.6 mg/kg; Rat (po) PI ([3]; Table b502, protective index (TD50/ED50)): >45; TD50 ([1]; read-out: Mice (ip) Tox, TD50): 22 mg/kg; Rat (po) Tox, TD50 ([2]; Table b502, orally): >250 [1.0] mg/kg; Mice (ip) MES, ED50 ([5]; Table b502, intraperitoneally): 5.8 [0.25] (4.4-7.2) mg/kg; Mice (ip) PI ([5]; Table b502, ip, protective index (TD50/ED50)): 3.8
